Test results from patent US20260335282A1, “NOVEL 3-ARYLIDENE-2-INDOLINONE DERIVATIVES FOR THERAPEUTIC USE” (ISTANBUL UNIVERSITESI REKTORLUGU, priority 2022, published 2026).
Several values for one entry are separate records, joined by “and”; a condition that tells them apart may be missing. Equal values may be shown once. Read-outs that look alike come from different tables or passages of the source.

Tests used:
Type in all cases: cell-based, human
MCF-7 cells = assay: MTT cytotoxicity, breast cancer cells MCF-7; details: MTT
In short: (§1)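 5000 cells/well; compounds 0.1–10 μM (0.1, 1, 5, 10 μM), 48 and/or 72 h. MTT 5 mg/ml, 4 h; formazan in DMSO; OD 570/630 nm. % viability vs matched-DMSO control; IC50 from dose-response curves; cell-free MTT+compound blanks.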

MDA-MB-231 cells = assay: MTT cytotoxicity, breast cancer cells MDA-MB-231; details: MTT, no * mark (incubation time not given)
In short: as §1

A549 cells = assay: MTT cytotoxicity, lung cancer cells A549
In short: as §1

CAKI-1 cells = assay: MTT cytotoxicity, kidney cancer cells CAKI-1
In short: as §1

A498 cells = assay: MTT cytotoxicity, kidney cancer cells A498; details: for selectivity index: MCF-10F/Beas2b vs A498
In short: as §1

MCF-10F/Beas2b cells = assay: MTT cytotoxicity, healthy cells MCF-10F/Beas2b; details: cancer line not given; for Selectivite Index, MCF-10F/Beas2b (Table 2): MCF-10F/Beas2b vs colon or pancreas cancer cells; for Selectivite Index (SI), MCF-10F/Beas2b (Table 1): MCF-10F/Beas2b vs breast or kidney cancer cells
In short: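 Cells exposed to compounds at 0.1, 1, 5 and 10 μM (DMSO vehicle-matched controls) for 48 and/or 72 h, then MTT 4 h; formazan in DMSO read at 570/630 nm. Viability as % of control; IC50 from dose-response curves. Healthy cells tested at 10-fold the cancer-cell IC50 concentration.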

HUVEC cells = assay: MTT cytotoxicity, healthy cells HUVEC; details: for Selectivite Index, HUVEC (Table 2): HUVEC vs colon or pancreas cancer cells; for Selectivite Index, HUVEC (Table 2) / Selectivite Index (SI), HUVEC (Table 1): cancer line not given; for IC50: MTT; for Selectivite Index (SI), HUVEC (Table 1): HUVEC vs breast or kidney cancer cells
In short: as §1

HT-29 cells = assay: MTT cytotoxicity, colon cancer cells HT-29; details: MTT
In short: (§2)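 Cells were seeded at 5000 per well and treated next day with compound at 0.1, 1, 5 and 10 μM (final) for 48 and/or 72 h, with matched DMSO controls. MTT was added for 4 h and formazan was dissolved in DMSO and read at 570/630 nm. % viability against control gave IC50 from dose-response curves.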

HCT-116 cells = assay: MTT cytotoxicity, colon cancer cells HCT-116
In short: as §2

MIAPaCa-2 cells = assay: Apoptosis/necrosis detection, Annexin V/PI flow cytometry, MiaPaca-2; details: for necrosis compared to control: MiaPaca-2; for apoptosis (early and late) compared to control: MiaPaca-2, IC50 values
Method: (§3) After incubation with 2-indolinone compounds (IC50 μM concentration; 48 and/or 72 hours), cells are washed twice with PBS and the cell pellet is suspended in Annexin V binding buffer. After this incubation, cells are incubated with FITC-conjugated Annexin V and propidium iodine staining solution for 15 minutes in the dark and at room temperature. Then, cells are analyzed by flow cytometry (Beckman coulter, Navios) (Wlodkowic, D., Skommer, J, Darzynkiewicz, Z. 2009. Flow cytometry-based apoptosis detection, Methods Mol Biol., 559, 1-14).

[1] = tested on: pancreas and kidney cancer cells; assay: Apoptosis detection, Annexin V/PI flow cytometry, pancreas and kidney cancer cells
Method: as §3
Whether the 2-indolinone derivatives (5) with the highest selectivity index and general TKI activity stimulated apoptosis and necrosis is determined by Annexin V and propidium iodine staining in pancreas and kidney cancer cells. Annexin V/PI flow cytometry apoptosis values of the tested compounds Y1, Y2, Y3, Y4, Y8 and Y14 are found to be 40% and above in correlation with MTT results. The apoptosis rates of the control groups and the substances are analyzed by t test in GraphPad version 9.0.

[2] = no * mark (incubation time not specified)
[3] = read-out: IC50, MDA-MB-231 (breast)
[4] = MTT, no * mark (incubation time not specified)

| Compound | IC50 (MCF-7 cells; [2]) [µM] | IC50 (MDA-MB-231 cells; [3]) [µM] | IC50 (A549 cells; [2]) [µM] | IC50 (CAKI-1 cells; [2]) [µM] | IC50 (A498 cells; [4]) [µM] | Selectivite Index, MCF-10F/Beas2b (Table 2) (MCF-10F/Beas2b cells) | Selectivite Index, HUVEC (Table 2) (HUVEC cells) | IC50 (HUVEC cells; [2]) [µM] | IC50 (HT-29 cells; [2]) [µM] | IC50 (HCT-116 cells; [2]) [µM] | necrosis compared to control (MIAPaCa-2 cells) | apoptosis (early and late) compared to control (MIAPaCa-2 cells) | Annexin V/PI flow cytometry apoptosis values [1] [%] | selectivity index (A498 cells) | Selectivite Index (SI), MCF-10F/Beas2b (Table 1) (MCF-10F/Beas2b cells) | Selectivite Index (SI), HUVEC (Table 1) (HUVEC cells) | other results |
| --- | --- | --- | --- | --- | --- | --- | --- | --- | --- | --- | --- | --- | --- | --- | --- | --- | --- |
| O=C1/C(=C\c2c[nH]c3ccccc23)c2ccccc2N1Cc1ccccc1 [Y1] | 6.34 | 9.82 | 9.72 | 3.38 | 4.11 | > 23.25 | 6.60 | 2.84 | 1.81 | 2.64 | did not cause necrosis | increase in apoptosis at IC50 values was statistically significant | ≥ 40 |  |  |  |  |
| Cc1ccc2c(c1)/C(=C/c1c[nH]c3ccccc13)C(=O)N2Cc1cccc(F)c1 [Y8] | 5.79 | 7.36 | 8.76 | 3.28 | 0.93 | > 18.52 | 4.07 | 2.2 | 5 | 1.21 | did not cause necrosis | increase in apoptosis at IC50 values was statistically significant | ≥ 40 | > 11 | > 10.75 | 2.36 |  |
| Cc1ccc2c(c1)/C(=C/c1c[nH]c3ccccc13)C(=O)N2Cc1ccccc1 [Y3] |  |  |  |  |  | > 76.92 | 12.69 |  |  |  | did not cause necrosis | increase in apoptosis at IC50 values was statistically significant | ≥ 40 | > 11 | > 11.49 | 1.89 | IC50 (MCF-7 cells; Homo sapiens, MCF7, no * mark (incubation time not given)): 4.75 µM; IC50 (MDA-MB-231 cells; Homo sapiens, MDA-MB-231, read-out: IC50, MDA-MB-231 (breast)): 3.57 µM; IC50 (A549 cells; Homo sapiens, A549, no * mark (incubation time not given)): 3.97 µM; IC50 (CAKI-1 cells; Homo sapiens, CAKI-1, no * mark (incubation time not given)): 4.01 µM; IC50 (A498 cells; Homo sapiens, A498, MTT, no * mark (incubation time not given)): 0.87 µM; IC50 (HUVEC cells; Homo sapiens, HUVEC, no * mark (incubation time not given)): 1.65 µM; IC50 (HT-29 cells; Homo sapiens, HT-29, no * mark (incubation time not given)): 2.43 µM; IC50 (HCT-116 cells; Homo sapiens, HCT-116, no * mark (incubation time not given)): 2.05 µM |
| O=C1/C(=C\c2c[nH]c3ccccc23)c2cc(OC(F)(F)F)ccc2N1Cc1ccccc1 [Y4] | > 10 | > 10 | > 10 | 3.79 | 4.23 | > 17.54 and > 18.87 | 4.28 and 4.60 | 2.44 | 1.75 | 0.57 | did not cause necrosis | increase in apoptosis at IC50 values was statistically significant | ≥ 40 |  |  |  |  |
